Results as given in patent publication US10253236B2, “Environmental friendly well treatment fluids comprising an ester” (AMRIL AG, priority 2013, dated 2019).

Assays:
[1] = Electrical stability of the oil based mud (Model 23D Electrical Stability Tester, API 13B-2); format: physicochemical; conditions: 2.5 g additive in oil based mud, measuring temp. 50° C.
Description: (§1) An oil based well treatment fluid was prepared as follows: the indicated amounts of the following ingredients are mixed using a Silverson Mixer (model L4RT) in the following order: synthetic paraffin, filtration control agent (a polymer: preferably Adapta by Halliburton), Ca(OH)2, Amidoamin (Terradril EM 1122), Water, CaCl2*2H2O, BaSO4, ball clay.
(§2) Next, either an ester of the invention (for example azelaic ricinoleate or an ester based on a C21 dimer acid and ricinoleic acid) or a conventional viscosifier (C36 dimer acid) is added to the mixture and to obtain the final emulsion a standard Hamilton Beach mixer was used, following manufacturer's instructions.
(§3) Next, the rheological characteristics including the fluids-plastic viscosity (PV), yield point (YP) and gel strength (gels 10″/10′) after 10 seconds and 10 minutes were determined with a Fann SR 12/Model 35 rheometer (Fann). In addition to the rheological characteristics, the electrical stability was tested using a Model 23D Electrical Stability Tester, following manufacturer's instructions, in accordance with API recommended practice 13B-2, December 1991.
(§4) The well treatment fluid was also tested in a Roller Oven for the indicated times at the indicated temperatures (after hot rolling=AHR and before hot rolling=BHR as indicated in the Table). As roller oven, a Baroid Laboratory Roller Oven was used, following manufacturer's instructions.

seawater bacteria = test: Inhibition to seawater bacteria (Marine BODIS test); conditions: natural seawater
Description: This method uses natural seawater (salinity 34%-37%) with added mineral nutrients (8.5 g/l KH2PO4, 21.7 g/l K2HPO4, 29.92 g/l Na2HPO4.2H2O, 0.5 g/l NH4Cl, 31.84 CaCl2, 22.5 g/l MgSO4.7H2O, 0.25 g/l FeCl3.6H2O, 0.4 g/l EDTA) and no inoculum was added in addition to the microorganisms already present in the seawater. The test vessels were closed glass bottles with a known volume of aqueous test mixture (66.6%) and air (33.3%). They were shaken continuously to assure steady state oxygen partitioning between the aqueous and gaseous phase. The degradation was followed by weekly measurements of the biochemical oxygen demand (BOD) in the aqueous phase for a 28-day period. The test vessels were re-aerated and resealed after measurement. The total oxygen uptake in the test flasks was calculated from the measured oxygen concentration divided by the saturation value at normal conditions and multiplied with the total oxygen content originally present in the aqueous and gaseous phases.
Three replicates were used for each test condition: test substance, controls, and insoluble reference substance. The total oxygen capacity of each test vessel was 26.64 mg oxygen. […]

[2] = Rheological characteristics of the oil based mud (Fann SR 12/Model 35 rheometer); format: physicochemical; conditions: 2.5 g additive in oil based mud, measuring temp. 50° C.
Description: as §1, §2, §3, §4

[3] = AHR (after hot rolling) 16 h (System 4: 15 h) at 150 °F
[4] = AHR 16 h (System 4: 15 h) at 150 °F

## CCCCCCC(CC=CCCCCCCCC(=O)O)OC(=O)CCCCCCCC(=O)O (stereo not shown) [Azelaic ricinoleate, azelaic ricinoleate]
[1]; [3]
  Electrical stab.: 802 V
[1]; BHR (before hot rolling)
  Electrical stab.: 760 V
Seawater bacteria
  inhibition to seawater bacteria: −14%
[2]; [4]
  3 rpm: 24 skt
  6 rpm: 24 skt
  100 rpm: 30 skt
  200 rpm: 37 skt
  300 rpm: 44 skt
  600 rpm: 59 skt
  Gels 10′ (gel strength after 10 minutes): 25 lb/100 ft^2
  Gels 10″ (gel strength after 10 seconds): 22 lb/100 ft^2
  PV (plastic viscosity): 15 cP
  YP (yield point): 29 lb/100 ft^2
[2]; BHR
  3 rpm: 25 skt
  6 rpm: 25 skt
  100 rpm: 31 skt
  200 rpm: 38 skt
  300 rpm: 44 skt
  600 rpm: 59 skt
  Gels 10′ (gel strength after 10 minutes): 25 lb/100 ft^2
  Gels 10″ (gel strength after 10 seconds): 20 lb/100 ft^2
  PV (plastic viscosity): 15 cP
  YP (yield point): 29 lb/100 ft^2

## C36 dimer acid
[1]; [3]
  Electrical stab.: 830 V
[1]; BHR (before hot rolling)
  Electrical stab.: 795 V
Seawater bacteria
  inhibition to seawater bacteria: −1%
[2]; [4]
  3 rpm: 10 skt
  6 rpm: 12 skt
  100 rpm: 23 skt
  200 rpm: 29 skt
  300 rpm: 35 skt
  600 rpm: 49 skt
  Gels 10′ (gel strength after 10 minutes): 15 lb/100 ft^2
  Gels 10″ (gel strength after 10 seconds): 11 lb/100 ft^2
  PV (plastic viscosity): 14 cP
  YP (yield point): 21 lb/100 ft^2
[2]; BHR
  3 rpm: 15 skt
  6 rpm: 15 skt
  100 rpm: 25 skt
  200 rpm: 32 skt
  300 rpm: 39 skt
  600 rpm: 52 skt
  Gels 10′ (gel strength after 10 minutes): 19 lb/100 ft^2
  Gels 10″ (gel strength after 10 seconds): 16 lb/100 ft^2
  PV (plastic viscosity): 13 cP
  YP (yield point): 26 lb/100 ft^2
